Data as given in the supplement of paper PMC12370961.

Columns and labels:
Test in all cases: differential drug sensitivity score (dDSS) relative to sarcoma reference cohort mean DSS (DSS units (0-100 scale difference)); higher = more selective sensitivity than reference sarcomas
Conditions in all cases: exposure time: 72 h; concentration range: 10-10000 nM
ES-ZH002 = test system: ES-ZH002 (patient-derived Ewing sarcoma tumoroid)
Experimental: (§1)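 Drug response profiling of patient-derived Ewing sarcoma and CIC::DUX4 sarcoma tumoroid models (or cells tested directly after isolation from the tumor, 'direct'). The DSS is the normalised AUC (0-100); dDSS is the sample DSS minus the mean DSS of a 34-sarcoma reference cohort profiled in the same lab.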

CDS-ZH003 = test system: CDS-ZH003 (patient-derived CIC-DUX4 sarcoma tumoroid)
Experimental: as §1

CDS-ZH001-2 = test system: CDS-ZH001-2 (patient-derived CIC-DUX4 sarcoma tumoroid)
Experimental: as §1

ES-ZH009 = test system: ES-ZH009 (patient-derived Ewing sarcoma tumoroid)
Experimental: as §1

CDS-ZH002 direct = test system: CDS-ZH002 direct (CIC-DUX4 sarcoma cells right after isolation)
Experimental: as §1

ES-ZH016 = test system: ES-ZH016 (patient-derived Ewing sarcoma tumoroid)
Experimental: as §1

ES-ZH007 = test system: ES-ZH007 (patient-derived Ewing sarcoma tumoroid)
Experimental: as §1

CDS-ZH002 = test system: CDS-ZH002 (patient-derived CIC-DUX4 sarcoma tumoroid)
Experimental: as §1

CDS-ZH001 = test system: CDS-ZH001 (patient-derived CIC-DUX4 sarcoma tumoroid)
Experimental: as §1

ES-ZH001 = test system: ES-ZH001 (patient-derived Ewing sarcoma tumoroid)
Experimental: as §1

ES-ZH016 direct = test system: ES-ZH016 direct (Ewing sarcoma cells right after isolation)
Experimental: as §1

ES-ZH004 = test system: ES-ZH004 (patient-derived Ewing sarcoma tumoroid)
Experimental: as §1

ES-ZH008 = test system: ES-ZH008 (patient-derived Ewing sarcoma tumoroid)
Experimental: as §1

SMILES	differential drug sensitivity score (ES-ZH002)	differential drug sensitivity score (CDS-ZH003)	differential drug sensitivity score (CDS-ZH001-2)	differential drug sensitivity score (ES-ZH009)	differential drug sensitivity score (CDS-ZH002 direct)	differential drug sensitivity score (ES-ZH016)	differential drug sensitivity score (ES-ZH007)	differential drug sensitivity score (CDS-ZH002)	differential drug sensitivity score (CDS-ZH001)	differential drug sensitivity score (ES-ZH001)	differential drug sensitivity score (ES-ZH016 direct)	differential drug sensitivity score (ES-ZH004)	differential drug sensitivity score (ES-ZH008)
CCNC(=O)C[C@@H]1N=C(c2ccc(Cl)cc2)c2cc(OC)ccc2-n2c(C)nnc21 [Molibresib]	5.5	-5.3	-1	5.5	-3.9	0.4	-1.8	-5.5	-1.2	0.4	4.2	-0.4	6.8
N#CCNC(=O)c1ccc(-c2ccnc(Nc3ccc(N4CCOCC4)cc3)n2)cc1 [Momelotinib]	3.7	-1.2	-1.2	0.5	-1.2	2.6	-1.2	-1.2	-1.2	4	-0.5	-1.2	-0.8
CCCN(CCC)C(=O)C1=Cc2ccc(-c3ccc(C(=O)N4CCCC4)cc3)cc2N=C(N)C1 [Motolimod]	1.9	-3.1	4.9	-1.5	2.1	0.2	-2.9	-1.9	-2	1.9	0.4	-3.1	0.1
CO/N=C1\C[C@]2(C[C@@H]3C[C@@H](C/C=C(\C)C[C@@H](C)/C=C/C=C4\CO[C@@H]5[C@H](O)C(C)=C[C@@H](C(=O)O3)[C@]45O)O2)O[C@H](/C(C)=C/C(C)C)[C@H]1C [Moxidectin]	3.7	-4.8	-5	3.8	0	-0.4	-0.2	-3.7	0.1	0.2	0	0.9	-1.8
O=c1cc(N2CCOCC2)oc2c(-c3cccc4c3sc3ccccc34)cccc12 [NU7441]	8.5	-4.3	1.9	2.9	1.5	-3.9	-4.3	-4	-4.3	0	1.1	-1.9	-0.8
CC1(C)CCC(c2ccc(Cl)cc2)=C(CN2CCN(c3ccc(C(=O)NS(=O)(=O)c4ccc(N[C@H](CCN5CCOCC5)CSc5ccccc5)c(S(=O)(=O)C(F)(F)F)c4)cc3)CC2)C1 [Navitoclax]	17.3	0.6	2.5	4.9	-5.8	-6.4	-7.4	-7.6	-2.9	6.7	13.7	-3.4	10.4
CN1C(=O)N[C@H](Cc2c[nH]c3c(Cl)cccc23)C1=O [Necrostatin-2]	2.2	-2.7	8.4	-2.7	-2.5	-1.3	-2.7	-1.9	-2.7	-1	15.6	7.5	13.8
O=c1ncn2nc(Sc3ccc(F)cc3F)ccc2c1-c1c(Cl)cccc1Cl [Neflamapimod]	5.8	-5.6	5	5.9	1	2.9	0.5	-1.2	-2.7	3.5	11.9	0.5	7.4
COc1nc(N)nc2c1ncn2[C@@H]1O[C@H](CO)[C@@H](O)[C@@H]1O [Nelarabine]	8.4	-2.5	-2.5	-2.5	-2.5	-2.5	-1.6	-2.5	-2.5	3.2	-2.5	1	5.2
CCCCN(Cc1ccc(C(=O)NO)cc1)C(=O)Nc1ccccc1 [Nexturastat A]	0.9	2.1	5.3	0.5	2.4	-1.3	2.1	-0.4	0.8	2.9	4.4	-0.7	5
Cc1cn(-c2cc(NC(=O)c3ccc(C)c(Nc4nccc(-c5cccnc5)n4)c3)cc(C(F)(F)F)c2)cn1 [Nilotinib]	4.1	-0.7	-0.7	-0.4	-0.7	-0.7	-0.3	-0.7	0.6	0.5	-0.7	1.6	-0.6
COc1ccc(C2=N[C@@H](c3ccc(Cl)cc3)[C@@H](c3ccc(Cl)cc3)N2C(=O)N2CCNC(=O)C2)c(OC(C)C)c1 [Nutlin-3]	8	3.6	8.4	-4.4	1	3.3	-4.6	-1.3	-1.8	-4.6	14	-4.6	1.4
COC1=CC(c2cc3ccccc3[nH]2)=N/C1=C\c1[nH]c(C)cc1C [Obatoclax]	2.9	-3	-0.2	1.5	4.4	2.1	7.5	-2.4	-3.8	-0.7	3.3	6.9	4
O=C(c1cc(Cc2n[nH]c(=O)c3ccccc23)ccc1F)N1CCN(C(=O)C2CC2)CC1 [Olaparib]	15	-5.3	-2	-0.2	-5.3	7.1	4	-5.3	-3.8	8.4	11.3	11.2	10.3
